# Measured values taken from US8048892B2, “Azaquinolone based compounds exhibiting prolyl hydroxylase inhibitory activity, compositions, and uses thereof” (Amgen Inc., priority 2006, dated 2011).
# Structures can show the parent of a compound that is named as a salt.
# Target: HIF PHD2 (Homo sapiens, UniProt Q9GZT9)
# Test: PHD2 inhibition assay (TR-FRET, VCB-Eu detection of hydroxylated P564-HIF1α peptide)
# Type: biochemical
# Details: 2 nM PHD2, 100 nM P564-HIF1α peptide, 0.25 μM 2-oxoglutarate
# Summary of the method: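 Human PHD2 (2 nM final) preincubated 1 h at room temperature with compound and 100 μM FeCl2 in pH 6 MES buffer, 5% DMSO final. Reaction with 100 nM biotinylated P564-HIF1α peptide, 2 mM ascorbate and 0.25 μM 2-oxoglutarate for 1 h, stopped with succinate. Hydroxylation read by TR-FRET (VCB-Eu/streptavidin-APC, 655/615 nm); IC50 from 4-parameter fit of percent of control.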
# Sequence of HIF PHD2 (Q9GZT9 whole entry): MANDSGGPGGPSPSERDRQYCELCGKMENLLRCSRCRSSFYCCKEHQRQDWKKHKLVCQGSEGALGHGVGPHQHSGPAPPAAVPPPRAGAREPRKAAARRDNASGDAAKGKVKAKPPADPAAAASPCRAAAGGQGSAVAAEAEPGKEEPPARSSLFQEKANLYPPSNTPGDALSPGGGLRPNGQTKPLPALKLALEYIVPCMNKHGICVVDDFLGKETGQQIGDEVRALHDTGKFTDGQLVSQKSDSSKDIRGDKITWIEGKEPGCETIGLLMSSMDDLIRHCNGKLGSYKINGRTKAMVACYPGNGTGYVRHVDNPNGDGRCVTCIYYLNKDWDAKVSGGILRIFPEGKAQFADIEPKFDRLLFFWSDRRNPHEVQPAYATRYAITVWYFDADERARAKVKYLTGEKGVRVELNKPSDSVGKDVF
row,SMILES,IC50 [nM]
1,"Cn1c(=O)c(C(=O)NCC(=O)O)c(O)c2cc(C#CC3CC3)cnc21 [Example 82, 2-(6-(2-Cyclopropylethynyl)-4-hydroxy-1-methyl-2-oxo-1,2-dihydro-1,8-naphthyridine-3-carboxamido)acetic acid]",< 50
2,"Cn1c(=O)c(C(=O)NCC(=O)O)c(O)c2cc(Cl)ncc21 [Example 111, 2-(6-Chloro-4-hydroxy-1-methyl-2-oxo-1,2-dihydro-1,7-naphthyridine-3-carboxamido)acetic acid]",< 50
3,"Cn1c(=O)c(C(=O)NCC(=O)O)c(O)c2cc(C3CCCO3)c(C(F)(F)F)nc21 (single isomer, unassigned) [Example 102, (R)-2-(4-Hydroxy-1-methyl-2-oxo-6-(tetrahydrofuran-2-yl)-7-(trifluoromethyl)-1,2-dihydro-1,8-naphthyridine-3-carboxamido)acetic acid or (S)-2-(4-Hydroxy-1-methyl-2-oxo-6-(tetrahydrofuran-2-yl)-7-(trifluoromethyl)-1,2-dihydro-1,8-naphthyridine-3-carboxamido)acetic acid]",50 to 100
4,"Cc1ccccc1-c1cc2c(O)c(C(=O)NCC(=O)O)c(=O)n(C)c2cn1 [Example 106, N-((4-Hydroxy-1-methyl-6-(2-methylphenyl)-2-oxo-1,2-dihydro-1,7-naphthyridin-3-yl)carbonyl)glycine]",< 50
5,"Cn1c(=O)c(C(=O)NCC(=O)O)c(O)c2ncc(-c3ccccc3)cc21 [Example 3, 2-(4-Hydroxy-1-methyl-2-oxo-7-phenyl-1,2-dihydro-1,5-naphthyridine-3-carboxamido)acetic acid]",50 to 100
6,"Cn1c(=O)c(C(=O)NCC(=O)O)c(O)c2ccc(C#C[Si](C)(C)C)nc21 [Example 19, 2-(4-Hydroxy-1-methyl-2-oxo-7-(2-(trimethylsilyl)ethynyl)-1,2-dihydro-1,8-naphthyridine-3-carboxamido)acetic acid]",50 to 100
7,"Cn1c(=O)c(C(=O)NCC(=O)O)c(O)c2cc(C3CCOC3)c(C(F)(F)F)nc21 (racemic) [Example 100, (R,S) 2-(4-Hydroxy-1-methyl-2-oxo-6-(tetrahydrofuran-3-yl)-7-(trifluoromethyl)-1,2-dihydro-1,8-naphthyridine-3-carboxamido)acetic acid]",< 50
8,"Cn1c(=O)c(C(=O)NCC(=O)O)c(O)c2cc(C3CCCCO3)cnc21 (racemic) [Example 68, (R,S)-2-(4-Hydroxy-1-methyl-2-oxo-6-(tetrahydro-2 H-pyran-2-yl)-1,2-dihydro-1,8-naphthyridine-3-carboxamido)acetic acid]",< 50
9,"Cn1c(=O)c(C(=O)NCC(=O)O)c(O)c2cc(Cl)[n+]([O-])cc21 [Example 123, 2-(6-Chloro-4-hydroxy-1-methyl-2-oxo-1,2-dihydro-1,7-naphthyridine-3-carboxamido)acetic acid, N-oxide]",< 50
10,"Cn1c(=O)c(C(=O)NCC(=O)O)c(O)c2cc(-c3ccnc(F)c3)cnc21 [Example 65, 2-(6-(2-Fluoropyridin-4-yl)-4-hydroxy-1-methyl-2-oxo-1,2-dihydro-1,8-naphthyridine-3-carboxamido)acetic acid]",< 50
11,"COc1ccc(-c2cnc3c(c2)c(O)c(C(=O)NCC(=O)O)c(=O)n3C)cn1 [Example 52, N-((4-Hydroxy-1-methyl-6-(6-(methyloxy)-3-pyridinyl)-2-oxo-1,2-dihydro-1,8-naphthyridin-3-yl)carbonyl)glycine]",100 to 500
12,"COc1ccc(-c2ccc3c(O)c(C(=O)NCC(=O)O)c(=O)n(C)c3n2)cc1 [Example 16, N-((4-Hydroxy-1-methyl-7-(4-(methyloxy)phenyl)-2-oxo-1,2-dihydro-1,8-naphthyridin-3-yl)carbonyl)glycine]",50 to 100
13,Cn1c(=O)c(C(=O)NCC(=O)O)c(O)c2cc(-c3nccc(C(F)(F)F)n3)cnc21 [Example 28],< 50
14,"Cn1c(=O)c(C(=O)NCC(=O)O)c(O)c2cc(-c3cccnc3)c(C(F)(F)F)nc21 [Example 91, 2-(4-Hydroxy-1-methyl-2-oxo-6-(pyridin-3-yl)-7-(trifluoromethyl)-1,2-dihydro-1,8-naphthyridine-3-carboxamido)acetic acid]",< 50
15,"CC(C)Oc1cccc(-c2cnc3c(c2)c(O)c(C(=O)NCC(=O)O)c(=O)n3C)c1 [Example 38, N-((4-Hydroxy-1-methyl-6-(3-((1-methylethyl)oxy)phenyl)-2-oxo-1,2-dihydro-1,8-naphthyridin-3-yl)carbonyl)glycine]",100 to 500
16,"Cc1cccc(C)c1-c1cnc2c(c1)c(O)c(C(=O)NCC(=O)O)c(=O)n2C [Example 40, N-((6-(2,6-Dimethylphenyl)-4-hydroxy-1-methyl-2-oxo-1,2-dihydro-1,8-naphthyridin-3-yl)carbonyl)glycine]",100 to 500
17,"Cn1c(=O)c(C(=O)NCC(=O)O)c(O)c2cc(F)cnc21 [Example 77, 2-(6-Fluoro-4-hydroxy-1-methyl-2-oxo-1,2-dihydro-1,8-naphthyridine-3-carboxamido)acetic acid]",50 to 100
18,"CC(=O)N1CCC(c2cc3c(O)c(C(=O)NCC(=O)O)c(=O)n(C)c3cn2)CC1 [Example 119, 2-(6-(1-Acetylpiperidin-4-yl)-4-hydroxy-1-methyl-2-oxo-1,2-dihydro-1,7-naphthyridine-3-carboxamido)acetic acid, Trifluoroacetic acid salt]",< 50
19,"C#Cc1cnc2c(O)c(C(=O)NCC(=O)O)c(=O)n(C)c2c1 [Example 7, 2-(7-Ethynyl-4-hydroxy-1-methyl-2-oxo-1,2-dihydro-1,5-naphthyridine-3-carboxamido)acetic acid]",< 50
20,"CCCCc1cnc2c(c1)c(O)c(C(=O)NCC(=O)O)c(=O)n2C [Example 72, 2-(6-Butyl-4-hydroxy-1-methyl-2-oxo-1,2-dihydro-1,8-naphthyridine-3-carboxamido)acetic acid]",50 to 100
21,"Cn1c(=O)c(C(=O)NCC(=O)O)c(O)c2ccncc21 [Example 112, N-((4-Hydroxy-1-methyl-2-oxo-1,2-dihydro-1,7-naphthyridin-3-yl)carbonyl)glycine]",50 to 100

# Now from value to molecule:
row,IC50 [nM],SMILES
1,50 to 100,"Cn1c(=O)c(C(=O)NCC(=O)O)c(O)c2ccc(N3CCCCC3)nc21 [Example 22, 2-(4-Hydroxy-1-methyl-2-oxo-7-(piperidin-1-yl)-1,2-dihydro-1,8-naphthyridine-3-carboxamido)acetic acid]"
2,50 to 100,"Cn1c(=O)c(C(=O)NCC(=O)O)c(O)c2cc(C3CCCCO3)cnc21 (single isomer, unassigned) [Example 70, (R)-2-(4-Hydroxy-1-methyl-2-oxo-6-(tetrahydro-2 H-pyran-2-yl)-1,2-dihydro-1,8-naphthyridine-3-carboxamido)acetic acid or (S)-2-(4-Hydroxy-1-methyl-2-oxo-6-(tetrahydro-2 H-pyran-2-yl)-1,2-dihydro-1,8-naphthyridine-3-carboxamido)acetic acid]"
3,< 50,"Cn1c(=O)c(C(=O)NCC(=O)O)c(O)c2cc(-c3ccc(OC(F)(F)F)cc3)ncc21 [Example 110, 2-(4-Hydroxy-1-methyl-2-oxo-6-(4-(trifluoromethoxy)phenyl)-1,2-dihydro-1,7-naphthyridine-3-carboxamido)acetic acid, Trifluoroacetic acid salt.]"
4,50 to 100,"Cn1c(=O)c(C(=O)NCC(=O)O)c(O)c2ccnc(Cl)c21 [Example 126, 2-(8-Chloro-4-hydroxy-1-methyl-2-oxo-1,2-dihydro-1,7-naphthyridine-3-carboxamido)acetic acid]"
5,50 to 100,"Cn1c(=O)c(C(=O)NCC(=O)O)c(O)c2cc(-c3ccccc3N3CCCCC3)cnc21 [Example 58, N-((4-Hydroxy-1-methyl-2-oxo-6-(2-(1-piperidinyl)phenyl)-1,2-dihydro-1,8-naphthyridin-3-yl)carbonyl)glycine]"
6,< 50,"C[C@H](NC(=O)c1c(O)c2cc(I)cnc2n(C)c1=O)C(=O)O [Example 73, (S)-2-(4-Hydroxy-6-iodo-1-methyl-2-oxo-1,2-dihydro-1,8-naphthyridine-3-carboxamido)propanoic acid]"
7,< 50,"Cn1c(=O)c(C(=O)NCC(=O)O)c(O)c2cc(Br)c(C(F)(F)F)nc21 [Example 94, 2-(6-Bromo-4-hydroxy-1-methyl-2-oxo-7-(trifluoromethyl)-1,2-dihydro-1,8-naphthyridine-3-carboxamido)acetic acid]"
8,< 50,"COCC#Cc1cnc2c(O)c(C(=O)NCC(=O)O)c(=O)n(C)c2c1 [Example 10, 2-(4-Hydroxy-7-(3-methoxyprop-1-ynyl)-1-methyl-2-oxo-1,2-dihydro-1,5-naphthyridine-3-carboxamido)acetic acid]"
9,50 to 100,"Cn1c(=O)c(C(=O)NCC(=O)O)c(O)c2cc(-c3cccnc3)ncc21 [Example 107, N-((4-Hydroxy-1-methyl-2-oxo-6-(3-pyridinyl)-1,2-dihydro-1,7-naphthyridin-3-yl)carbonyl)glycine]"
10,< 50,"Cc1ccccc1-c1cc2c(O)c(C(=O)NCC(=O)O)c(=O)n(C)c2c(C(F)(F)F)n1 [Example 125, N-((4-Hydroxy-1-methyl-6-(2-methylphenyl)-2-oxo-8-(trifluoromethyl)-1,2-dihydro-1,7-naphthyridin-3-yl)carbonyl)glycine]"
11,50 to 100,"Cn1c(=O)c(C(=O)NCC(=O)O)c(O)c2cc(-c3ccccc3C(N)=O)cnc21 [Example 41, N-((6-(2-(Aminocarbonyl)phenyl)-4-hydroxy-1-methyl-2-oxo-1,2-dihydro-1,8-naphthyridin-3-yl)carbonyl)glycine]"
12,100 to 500,"C[C@H](NC(=O)c1c(O)c2cc(-c3ccccc3)cnc2n(C)c1=O)C(=O)O [Example 74, (S)-2-(4-Hydroxy-1-methyl-2-oxo-6-phenyl-1,2-dihydro-1,8-naphthyridine-3-carboxamido)propanoic acid]"
